Measurements taken from patent US12121566B2, “Methods for treating gout” (Horizon Therapeutics USA, Inc., priority 2019, dated 2024).
Like-named read-outs stand apart in the source and are kept apart here.

What was measured:
[1] = test system: patients with chronic gout refractory to conventional therapy; conditions: cited from earlier work
[2] = test system: anti-pegloticase antibodies, anti-PEG antibodies; conditions: cited from earlier work
[3] = test system: patients with symptomatic gout; conditions: after doses of 4 to 12 mg, within 24 to 72 hours, from 11.1±0.6 mg/dL; cited from earlier work
[4] = test system: patients with refractory chronic gout; conditions: Phase 2 program; cited from earlier work
[5] = test system: subjects weighing ≥120 kg; experiment: Analysis of prior pegloticase randomized clinical trials by body weight (>=120 kg); assay type: in vivo, human; conditions: ≥120 kg group
[6] = test system: dogs; experiment: Animal toxicology in dogs (IV); assay type: in vivo, dog; conditions: for vacuoles in the spleen, adrenal glands, and heart after recovery: 1-year recovery period; for vacuoles in the liver, duodenum, and jejunum after recovery: 3-month recovery period
Description: Organs with cytoplasmic vacuoles included the spleen, adrenal gland, liver, heart, duodenum, and jejunum. Vacuoles in the spleen, adrenal glands, and heart persisted after a 1-year recovery period at pegloticase dose (≥1.5 mg/kg in dogs) approximately 5 times the MRHD, but were absent at a dose similar to the MRHD. Vacuoles in the liver, duodenum, and jejunum persisted after a 3-month recovery period at a pegloticase dose (10 mg/kg in dogs) approximately 30 times the MRHD, but were absent at doses less than or equal to 1.5 mg/kg approximately 5 times and similar to the MRHD. The edema and histiocyte infiltration in the aortic outflow tract was absent after recovery periods of 6 and 12 months, respectively.
Vacuoles in the spleen, liver, duodenum, and jejunum were within macrophages and most likely represented phagocytic removal of pegloticase from the circulation. […] In the aortic outflow tract of the heart, vacuoles were in the cytoplasm of endothelial cells in the intimal lining of the aorta. In the adrenal gland, vacuoles were located within cortical cells in the Zona reticularis and Zona fasciculata. The clinical significance of these findings and the functional consequences are unknown.

[7] = test system: patients with chronic gout refractory to conventional therapy; conditions: bi-weekly or every 4 weeks for up to 30 months, 149 patients; cited from earlier work
[8] = Pharmacokinetics after single intravenous infusions, serum uricase enzyme activity; assay type: in vivo, human; conditions: single intravenous infusions of 0.5 mg to 12 mg, 23 patients
Description: Pegloticase levels were determined in serum based on measurements of uricase enzyme activity.

[9] = test system: patients with chronic gout refractory to conventional therapy; experiment: Two replicate randomized, double-blind, placebo controlled six-month studies (Trial 1 and Trial 2): urate lowering and tophi; assay type: in vivo, human
Description: The efficacy of KXX was studied in adult patients with chronic gout refractory to conventional therapy in two replicate, multicenter, randomized, double-blind, placebo controlled studies of six months duration: Trial 1 and Trial 2. Patients were randomized to receive KXX 8 mg every 2 weeks or every 4 weeks or placebo in a 2:2:1 ratio.
Studies were stratified for the presence of tophi. Seventy-one percent (71%) of patients had baseline tophi. All patients were prophylaxed with an oral antihistamine, intravenous corticosteroid and acetaminophen. Patients also received prophylaxis for gout flares with non-steroidal anti-inflammatory drugs (NSAIDs) or colchicine, or both, beginning at least one week before KXX treatment unless medically contraindicated or not tolerated. Patients who completed the randomized clinical trials were eligible to enroll in a 2-year open label extension study.
To assess the efficacy of KXX in lowering uric acid, the primary endpoint in both trials was the proportion of patients who achieved plasma uric acid (PUA) less than 6 mg/dL for at least 80% of the time during Month 3 and Month 6.
The effect of treatment on tophi was a secondary efficacy endpoint and was assessed using standardized digital photography, image analysis, and a Central Reader blinded to treatment assignment. Approximately 70% of patients had tophi at baseline. A pooled analysis of data from Trial 1 and Trial 2 was performed as pre-specified in the protocols. At Month 6, the percentage of patients who achieved a complete response (defined as 100% resolution of at least one target tophus, no new tophi appear and no single tophus showing progression) was 45%, 26%, and 8%, with KXX 8 mg every 2 weeks, KXX 8 mg every 4 weeks, and placebo, respectively. The difference between KXX and placebo was statistically significant for the every-2-week dosing regimen, but not for the every-4-week dosing regimen.

[10] = test system: patients with chronic gout refractory to conventional therapy; experiment: Infusion reactions with the dosage regimen described herein (stopping at SUA >6 mg/dL); assay type: in vivo, human; conditions: dosage regimen as described herein, strict adherence to stopping at serum uric acid greater than 6 mg/dL
Description: Study Design—In order to evaluate a tolerizing regimen of pegloticase (i.e., the main study), an open label, multicenter, 24-week study is performed. Eligible subjects weighing <120 kg receive pegloticase 8 mg intravenously (IV) on a weekly basis (week 1 through week 3—“Tolerizing Period”), followed by 8 mg IV every 2 weeks through week 25 for a total of 14 doses. Subjects weighing ≥120 kg are sequentially assigned to 1 of 3 different loading doses (8, 12, and 16 mg) on Study Day 1, and then receive 8 mg on weeks 2 and 3, followed by 8 mg every 2 weeks through week 25 for a total of 14 doses.
Eligible subjects weighing <120 kg will receive pegloticase 8 mg IV every 2 weeks through week 25 for a total of 13 doses. Subjects will also receive AZA (1.25 mg/kg orally daily for 1 week then 2.5 mg/kg orally daily) beginning 2 weeks prior to the first dose of pegloticase through week 25. Subjects are monitored for efficacy and safety endpoints, including hematology and liver function tests, through week 25. Subjects also have blood drawn for trough pegloticase, anti-pegloticase antibody, and anti-PEG antibody levels prior to each dose after week 1, on weeks 3, 5, 7, 9, 11, 13, 15, 17, 19, 21, 23, and 25; and sampling for trough AZA metabolite levels prior to all doses of pegloticase. […]

[11] = post-hoc, if KXX stopped after 2 consecutive uric acid levels greater than 6 mg/dL
[12] = post-hoc, if KXX stopped when uric acid rose to greater than 6 mg/dL on a single occasion

pegloticase
incidence of infusion-related reactions ([1]; pooled Phase 3, 8 mg biweekly dosing): 26% | incidence of infusion-related reactions ([1]; pooled Phase 3, 8 mg every-4-week dosing regimen): 40% | patients with IRs in whom loss of response (return to SUA >6 mg/dL) preceded the first IR ([1]; pooled Phase 3, 20/21): 95% | patients with antibody titer exceeding 1:2430 at any time who maintained a response ([2]; another study, 7 of 65): 10.8% | patients with titers exceeding 1:2430 who developed IRs ([2]; another study, 31 of 52): 60% | patients who never had an antibody titer above 1:2430 who maintained a response ([2]; another study, 58/65): 89.2% | patients who developed high titer anti-pegloticase antibodies and subsequently lost response ([2]; one study, 69 of 169 patients): 41% | participants with high antibody titers who maintained a response (serum urate <6 mg/dL) ([2]; second study): 1 of 52 | participants with high titers who developed IR ([2]; second study): 60% | plasma urate concentration (pUAc), mean±SD [3]: 1.0±0.5 mg/dL | dose-response plateau dose [4]: 12 mg | minimally effective dose [4]: 4 mg | safe and optimally effective dose [4]: 8 mg | impact on serum urate [5]: less | initial serum peak of pegloticase (Cmax) [5]: lower | tendency to become non-responders [5]: greater tendency to become non-responders | vacuoles in the spleen, adrenal glands, and heart after recovery ([6]; dose similar to the MRHD): absent | vacuoles in the spleen, adrenal glands, and heart after recovery ([6]; ≥1.5 mg/kg, approximately 5 times the MRHD): persisted | vacuoles in the liver, duodenum, and jejunum after recovery ([6]; 10 mg/kg, approximately 30 times the MRHD): persisted | vacuoles in the liver, duodenum, and jejunum after recovery ([6]; doses less than or equal to 1.5 mg/kg): absent | organ findings ([6]; IV doses of ≥0.4 mg/kg, similar to and higher than the MRHD): caused cytoplasmic vacuoles in multiple organs, and edema and histiocyte infiltration in the aortic outflow tract | edema and histiocyte infiltration in the aortic outflow tract after recovery ([6]; recovery periods of 6 and 12 months, respectively): absent | long-term safety [7]: No new safety signals were observed | maximum serum concentrations of pegloticase versus dose [8]: increased in proportion to the dose administered | efficacy in patients with creatinine clearance less than or equal to 62.5 mL/min ([9]; KXX 8 mg every 2 weeks): No overall differences | percentage of patients who achieved a complete response of tophi ([9]; Month 6, pooled Trial 1 and Trial 2, KXX 8 mg every 2 weeks): 45% | percentage of patients who achieved a complete response of tophi ([9]; Month 6, pooled Trial 1 and Trial 2, KXX 8 mg every 4 weeks): 26% | Number (%) of Subjects Who Met Response Criteria (plasma uric acid <6 mg/dL for at least 80% of the time during Months 3 and 6) ([9]; Trial 1, 8 mg every 2 weeks, N 43): 20 (47%) Number (%) | Number (%) of Subjects Who Met Response Criteria (plasma uric acid <6 mg/dL for at least 80% of the time during Months 3 and 6) ([9]; Trial 1, 8 mg every 4 weeks, N 41): 8 (20%) Number (%) | Number (%) of Subjects Who Met Response Criteria (plasma uric acid <6 mg/dL for at least 80% of the time during Months 3 and 6) ([9]; Trial 2, 8 mg every 2 weeks, N 42): 16 (38%) Number (%) | Number (%) of Subjects Who Met Response Criteria (plasma uric acid <6 mg/dL for at least 80% of the time during Months 3 and 6) ([9]; Trial 2, 8 mg every 4 weeks, N 43): 21 (49%) Number (%) | mean plasma uric acid level ([9]; approximately 24 hours following the first dose, KXX 8 mg every 2 weeks group): 0.7 mg/dL | efficacy outcome [9, 11]: little change | incidence of infusion reactions [9, 11]: half | reduction of success rates for the primary efficacy endpoint [9, 12]: approximately 20% | reduction of the incidence of infusion reactions [9, 12]: approximately 67% | infusion reactions that occurred [10]: only a single infusion reaction occurred
